The assay deals with nude mice, LOX melanoma ip, survival T/C. The assay can be described thus: NCI In Vivo Anticancer Drug Screen. Data for tumor model Human Amelanotic Melanoma (LOX) (intraperitoneal) in NU/NU BALB/C (nude) mice. The note with it: endpoint: median survival time, higher = longer survival. The protocol:
The antitumor activity of compounds was measured in mice bearing transplantable tumors. Survival or tumor size were measured and the results are expressed as the measurement made in the treated group (T) divided by the measurement made in the vehicle treated control group (C). The tumor model used in this assay is Human Amelanotic Melanoma (LOX) (intraperitoneal) in NU/NU BALB/C (nude) mice

The mark [1] stands for this setting: dose: 150.0 mg/kg/injection, schedule: Q04DX003 (ip), vehicle: saline with Tween-80.
Setting [2] is: dose: 300.0 mg/kg/injection, schedule: Q04DX003 (ip), vehicle: saline with Tween-80.

Values joined by “and” are separate entries in the source; they are usually repeats but may differ in a detail not shown here. Equal entries are not always repeated. Toxic doses and inconclusive results are not listed.

Regarding `O=C(O)CCCc1ccc(N(CCCl)CCCl)cc1`, the T/C reads like this: (dose: 0.2 mg/kg/injection, schedule: Q04DX003 (ip), vehicle: Klucel (hydroxypropylcellulose) (HPC)) 90 % of control; (dose: 0.3 mg/kg/injection, schedule: Q04DX003 (ip), vehicle: Klucel (hydroxypropylcellulose) (HPC)) 95 % of control; (dose: 12.0 mg/kg/injection, schedule: Q01DX001 (ip), vehicle: Klucel (hydroxypropylcellulose) (HPC)) 117 % of control; (dose: 12.0 mg/kg/injection, schedule: Q01DX005 (ip), vehicle: Klucel (hydroxypropylcellulose) (HPC)) 213 % of control; (dose: 12.0 mg/kg/injection, schedule: Q01DX015 (ip), vehicle: Klucel (hydroxypropylcellulose) (HPC)) 173 % of control; (dose: 12.0 mg/kg/injection, schedule: Q04DX003 (ip), vehicle: Klucel (hydroxypropylcellulose) (HPC)) 116 % of control. The T/C was 161 % of control (dose: 18.0 mg/kg/injection, schedule: Q01DX001 (ip), vehicle: Klucel (hydroxypropylcellulose) (HPC)); 190 % of control (dose: 18.0 mg/kg/injection, schedule: Q01DX005 (ip), vehicle: Klucel (hydroxypropylcellulose) (HPC)); 346 % of control (dose: 18.0 mg/kg/injection, schedule: Q01DX015 (ip), vehicle: Klucel (hydroxypropylcellulose) (HPC)); 346 % of control (dose: 27.0 mg/kg/injection, schedule: Q01DX005 (ip), vehicle: Klucel (hydroxypropylcellulose) (HPC)); 346 % of control (dose: 27.0 mg/kg/injection, schedule: Q01DX015 (ip), vehicle: Klucel (hydroxypropylcellulose) (HPC)); 210 % of control and 248 % of control and 97 % of control (dose: 27.0 mg/kg/injection, schedule: Q04DX003 (ip), vehicle: Klucel (hydroxypropylcellulose) (HPC)).

`N=C(N)SCc1cccc2c(=O)cc(-c3ccccc3)oc12`: the T/C is 101 % of control (dose: 25.0 mg/kg/injection, schedule: Q04DX003 (ip), vehicle: suspension in saline); 111 % of control (dose: 50.0 mg/kg/injection, schedule: Q04DX003 (ip), vehicle: suspension in saline); 118 % of control (dose: 100.0 mg/kg/injection, schedule: Q04DX003 (ip), vehicle: suspension in saline); 124 % of control (dose: 400.0 mg/kg/injection, schedule: Q04DX003 (ip), vehicle: suspension in saline).

`Cc1cc(O)c2c(c1O)C(=O)C13C(=C2O)C(=O)C2C(O)C1C1C(O)C3C(=O)C3=C(O)c4c(O)cc(C)c(O)c4C(=O)C321` (stereo not drawn): the T/C (dose: 6.25 mg/kg/injection, schedule: Q04DX003 (ip), vehicle: saline with Tween-80) is 114 % of control.

Turning to `CCOC(=O)Nc1cc(NC(C)/C(=N/O)c2ccccc2)c([N+](=O)[O-])c(N)n1` (stereo not drawn), the T/C reads like this: (dose: 50.0 mg/kg/injection, schedule: Q04DX003 (ip), vehicle: Klucel (hydroxypropylcellulose) (HPC)) 97 % of control; (dose: 51.84 mg/kg/injection, schedule: Q04DX003 (ip), vehicle: Klucel (hydroxypropylcellulose) (HPC)) 109 % of control; (dose: 86.4 mg/kg/injection, schedule: Q04DX003 (ip), vehicle: Klucel (hydroxypropylcellulose) (HPC)) 104 % of control; (dose: 144.0 mg/kg/injection, schedule: Q04DX003 (ip), vehicle: Klucel (hydroxypropylcellulose) (HPC)) 89 % of control; (dose: 240.0 mg/kg/injection, schedule: Q04DX003 (ip), vehicle: Klucel (hydroxypropylcellulose) (HPC)) 101 % of control.

With `O=NN(CCCl)C(=O)NCCCl`, the T/C (dose: 1.88 mg/kg/injection, schedule: Q01DX005 (ip), vehicle: saline + alcohol) was 122 % of control; the T/C (dose: 2.5 mg/kg/injection, schedule: Q01DX015 (ip), vehicle: saline + alcohol) was 185 % of control; the T/C (dose: 3.75 mg/kg/injection, schedule: Q01DX005 (ip), vehicle: saline + alcohol) was 163 % of control; the T/C (dose: 5.0 mg/kg/injection, schedule: Q01DX001 (ip), vehicle: saline + alcohol) was 117 % of control; the T/C (dose: 5.0 mg/kg/injection, schedule: Q01DX015 (ip), vehicle: saline + alcohol) is 193 % of control; the T/C (dose: 7.5 mg/kg/injection, schedule: Q01DX005 (ip), vehicle: saline + alcohol) was 218 % of control. Also, the T/C (dose: 10.0 mg/kg/injection, schedule: Q04DX003 (ip), vehicle: saline + alcohol) was 185 % of control; the T/C (dose: 12.0 mg/kg/injection, schedule: Q04DX003 (ip), vehicle: saline + alcohol) is 118 % of control; the T/C (dose: 12.0 mg/kg/injection, schedule: Q04DX003 (iv), vehicle: saline + alcohol) was 220 % of control; the T/C (dose: 15.0 mg/kg/injection, schedule: Q01DX005 (ip), vehicle: saline + alcohol) is 191 % of control; the T/C (dose: 18.0 mg/kg/injection, schedule: Q04DX003 (ip), vehicle: saline + alcohol) is 116 % of control; the T/C (dose: 18.0 mg/kg/injection, schedule: Q04DX003 (iv), vehicle: saline + alcohol) is 331 % of control. Moreover, the T/C reads like this: (dose: 20.0 mg/kg/injection, schedule: Q01DX001 (ip), vehicle: saline + alcohol) 177 % of control; (dose: 20.0 mg/kg/injection, schedule: Q04DX003 (ip), vehicle: saline + alcohol) 175 % of control; (dose: 27.0 mg/kg/injection, schedule: Q04DX003 (ip), vehicle: saline + alcohol) 116 % of control; (dose: 27.0 mg/kg/injection, schedule: Q04DX003 (iv), vehicle: saline + alcohol) 331 % of control; (dose: 40.0 mg/kg/injection, schedule: Q01DX001 (ip), vehicle: saline + alcohol) 171 % of control; (dose: 40.0 mg/kg/injection, schedule: Q04DX003 (ip), vehicle: saline + alcohol) 218 % of control. Further, under “dose: 80.0 mg/kg/injection, schedule: Q01DX001 (ip), vehicle: saline + alcohol”, the T/C is 196 % of control.

`CS(=O)(=O)Nc1ccc(C(=O)CCN2CCCCCC2)cc1`: the T/C (dose: 37.5 mg/kg/injection, schedule: Q04DX003 (ip), vehicle: saline with Tween-80) is 98 % of control; the T/C (dose: 75.0 mg/kg/injection, schedule: Q04DX003 (ip), vehicle: saline with Tween-80) is 123 % of control; the T/C under setting [1] is 93 % of control; the T/C under setting [2] is 110 % of control.

As for `[Cl][Pt][Cl].[NH-]C(CO)C(=O)O` (stereo not drawn), the T/C reads like this: (dose: 9.38 mg/kg/injection, schedule: Q04DX003 (ip), vehicle: water) 119 % of control; (dose: 18.75 mg/kg/injection, schedule: Q04DX003 (ip), vehicle: water) 114 % of control; (dose: 37.5 mg/kg/injection, schedule: Q04DX003 (ip), vehicle: water) 123 % of control.

As to `NC(=O)c1cc(Cl)nc2nc(Cl)nc(N)c12`, the T/C is, setting by setting: under setting [1], 92 % of control; under setting [2], 111 % of control; (dose: 600.0 mg/kg/injection, schedule: Q04DX003 (ip), vehicle: saline with Tween-80) 94 % of control.

Consider `Cc1ccc(NN=O)nc1`, for which the T/C runs as follows: (dose: 2.5 mg/kg/injection, schedule: Q04DX003 (ip), vehicle: water) 105 % of control; (dose: 5.0 mg/kg/injection, schedule: Q04DX003 (ip), vehicle: water) 114 % of control; (dose: 10.0 mg/kg/injection, schedule: Q04DX003 (ip), vehicle: water) 115 % of control.

Turning to `Cc1c(N)nc([C@H](CC(N)=O)NC[C@H](N)C(N)=O)nc1C(=O)N[C@H](C(=O)N[C@H](C)[C@@H](O)[C@H](C)C(=O)N[C@H](C(=O)NCCc1nc(-c2nc(C(=O)NCCC[S+](C)C)cs2)cs1)[C@@H](C)O)C(OC1OC(CO)C(O)C(O)C1OC1OC(CO)C(O)C(OC(N)=O)C1O)c1cnc[nH]1` (stereo partly drawn), the T/C (dose: 2.0 mg/kg/injection, schedule: Q01DX015 (ip), vehicle: saline) is 165 % of control; the T/C (dose: 4.0 mg/kg/injection, schedule: Q01DX005 (ip), vehicle: saline) was 155 % of control; the T/C (dose: 4.0 mg/kg/injection, schedule: Q01DX015 (ip), vehicle: saline) was 159 % of control; the T/C (dose: 8.0 mg/kg/injection, schedule: Q01DX005 (ip), vehicle: saline) was 175 % of control; the T/C (dose: 8.0 mg/kg/injection, schedule: Q01DX015 (ip), vehicle: saline) was 176 % of control; the T/C (dose: 8.0 mg/kg/injection, schedule: Q04DX003 (ip), vehicle: saline) is 160 % of control. The T/C runs as follows: (dose: 16.0 mg/kg/injection, schedule: Q01DX015 (ip), vehicle: saline) 87 % of control; (dose: 24.0 mg/kg/injection, schedule: Q04DX003 (ip), vehicle: saline) 110 % of control; (dose: 32.0 mg/kg/injection, schedule: Q01DX001 (ip), vehicle: saline) 150 % of control; (dose: 32.0 mg/kg/injection, schedule: Q01DX005 (ip), vehicle: saline) 175 % of control; (dose: 32.0 mg/kg/injection, schedule: Q04DX003 (ip), vehicle: saline) 176 % of control; (dose: 36.0 mg/kg/injection, schedule: Q04DX003 (ip), vehicle: saline) 105 % of control. Moreover, the T/C is 151 % of control (dose: 64.0 mg/kg/injection, schedule: Q01DX001 (ip), vehicle: saline) and 150 % of control (dose: 128.0 mg/kg/injection, schedule: Q01DX001 (ip), vehicle: saline).

These data come from PubChem BioAssay AID280 (DTP/NCI, 2004).
